# Test results taken from patent US12629390B2, “Stabilized amorphous calcium carbonate for treatment of neurological, muscular and infertility diseases or conditions” (AMORPHICAL LTD., priority 2016, dated 2026).
# What was measured:
# [1] = system: MBA-13 cells; test: Alizarin red staining of MBA13 stem cells differentiating to osteoblasts; format: cell-based; conditions: 10 days in culture
# Method: Two days following thawing, MBA-13 cells (received from Prof. Dov Zipori, Weizmann Institute of Science) were re-suspended in recombinant trypsin solution and seeded on a 96 wells plate, (Day “0”) in a concentration of 1×10^4 cells/well using MSC Nutristem® XF basal medium (Biological Industries, cat #05-200-1A) supplemented with Mesenchymal stem cells (MSC) supplement mix medium (Biological Industries cat #05-201-06) in a ratio of 50 ml:300 μl. […] Row G in the plate was treated with MSCgo medium (total 1.488 mM calcium). Row H of the plate was treated with MSC NutriStem® XF nutrient basal medium+supplement mix (total 1.488 mM calcium). On day 4, medium was exchanged with fresh preparations of ACC. […] Once the cells were fixated, two types of staining reagents were used to stain extracellular calcium or bone deposition in order to estimate osteoblasts functionality: (i) Alizarin red (Sigma A55333) and (ii) Alkaline Phosphatase (DAKO BCIP/NBT substrate system […]) as following: Alizarin red staining procedure-pH was adjusted to 4.2. Cells were washed twice with PBS and fixed with cold methanol for 5 minutes and then washed again with PBS. […] Following staining incubation, the samples were washed with water 2-3 times to remove unspecific staining.
# [2] = system: mice embryos; test: in vitro embryo development in Quinn's Advantage cleavage media; format: cell-based
# Method: CBA male mice were bred with BL C57 female mice. The mice were kept on a 12 hours photoperiod schedule with unlimited water and food supply. About 6 to 8 weeks after receiving offspring, each female mouse was injected IP with 5IU of pregnant mare serum gonadotropin (PMSG).
# After 48 hours each female mouse was injected IP with 5IU human chorionic gonadotropin (hCG). Male mice proven to be fertile were then put together with the superovulated females. The next morning the female mice were examined for the presence of copulatory plugs. Females that had copulatory plugs were euthanized after 24 hours (approximately 36 hours post-coitus) and embryos at 2 cell stage were retrieved from the oviducts as following: the oviducts were dissected in Quinn's Advantage cleavage media (SAGE, Origio, Denmark) and the embryos were transferred to 20 μL drops with Quinn's Advantage cleavage media (SAGE, Origio, Denmark) overlaid with mineral oil and cultured at 37.0° C. under 5% CO2 and atmospheric oxygen. The collected embryos continued to grow, i.e. in-vitro culture (IVC), until blastocyst/hatching stage. To test the effect of amorphous calcium carbonate, the Quinn's Advantage cleavage media (“cleavage media” hereinafter) was supplemented with different additives, i.e. amorphous calcium carbonate stabilized by polyphosphate (ACC-PP), crystalline calcium carbonate (CCC), polyphosphate (PP), phosphoserine (PS) or sodium carbonate ([…]). All supplements were added as a freshly prepared suspension; the preparation of the ACC supplements were performed under aseptic conditions. Untreated cleavage media (without addition of any additive) was used as a control (identified as Cont Q). The embryos were evaluated every day by microscope observation for a detection of the following stages: 2 cells, compactions stage, blastocysts formation and hatching stage. The fraction (in percent) of the embryos reached each stage was calculated (the number of 2 cells embryos was set as 100%).
# [3] = Example 9 Test A, 1.7 mM in cleavage media
# [4] = Example 9 Test B, 1.7 mM CaCl2 or ACC-PP in cleavage media
# [5] = Example 10, 1.7 mM CaCl2 or ACC-PP in cleavage media
# [6] = Example 11, 1.7 mM in cleavage media
# [7] = Example 12, mouse 1, embryos grown separately, 1.7 mM in cleavage media
# [8] = Example 12, mouse 2, embryos grown separately, 1.7 mM in cleavage media
# [9] = Example 12, mouse 3, embryos grown separately, 1.7 mM in cleavage media
# [10] = Example 12, mouse 4, embryos grown separately, 1.7 mM in cleavage media
# [11] = Example 16, pooled embryos, 1.7 mM in cleavage media
smiles,measurement,setting,value
"[Ca+2].[Cl-].[Cl-] [CaCl2, calcium chloride]",Alizarin Red staining signal,"[1]; additional 1 mM calcium in MSCgo rapid osteogenic medium, gelatin coating",weak signal
same,large calcium deposition plaques,[1]; additional 1 mM calcium,not observed
same,Blast/d3: number of embryos,[2]; [3],16
same,Blast/d3: portion of the initial number of embryos,[2]; [3],64%
same,Comp/d2: portion of the initial number of embryos,[2]; [3],64%
same,comp/d2: number of embryos,[2]; [3],16
same,Blast/d3: number of embryos,[2]; [4],20
same,Blast/d3: portion of the initial number of embryos,[2]; [4],74%
same,Comp/d2: portion of the initial number of embryos,[2]; [4],70%
same,Hatch/d4: number of embryos,[2]; [4],11
same,Hatch/d4: portion of the initial number of embryos,[2]; [4],40.7%
same,comp/d2: number of embryos,[2]; [4],20
same,Blast/d3: number of embryos,[2]; [5],8
same,Blast/d3: portion of the initial number of embryos,[2]; [5],80%
same,Comp/d2: portion of the initial number of embryos,[2]; [5],30%
same,Hatch/d4: number of embryos,[2]; [5],3
same,Hatch/d4: portion of the initial number of embryos,[2]; [5],30%
same,comp/d2: number of embryos,[2]; [5],3
same,Blast/d3: number of embryos,[2]; [6],24
same,Blast/d3: portion of the initial number of embryos,[2]; [6],80%
same,Comp/d2: portion of the initial number of embryos,[2]; [6],53.3%
same,Hatch/d4: number of embryos,[2]; [6],13
same,Hatch/d4: portion of the initial number of embryos,[2]; [6],43.3%
same,comp/d2: number of embryos,[2]; [6],16
same,2Cell/d1: number of embryos,[2]; [7],3
same,8Cell/d2: number of embryos,[2]; [7],2
same,Blast/d3: number of embryos,[2]; [7],1
same,Blast/d3: portion of the initial number of embryos,[2]; [7],8.3%
same,Hatch/d4: number of embryos,[2]; [7],0 (0)
same,Hatch/d4: portion of the initial number of embryos,[2]; [7],0 (0) %
same,comp/d2: number of embryos,[2]; [7],1
same,irreg/d1: number of embryos,[2]; [7],9
same,2Cell/d1: number of embryos,[2]; [8],3
same,8Cell/d2: number of embryos,[2]; [8],0
same,Blast/d3: number of embryos,[2]; [8],2
same,Blast/d3: portion of the initial number of embryos,[2]; [8],22.2%
same,Hatch/d4: number of embryos,[2]; [8],0 (0)
same,Hatch/d4: portion of the initial number of embryos,[2]; [8],0 (0) %
same,comp/d2: number of embryos,[2]; [8],3
same,irreg/d1: number of embryos,[2]; [8],6
same,2Cell/d1: number of embryos,[2]; [9],7
same,8Cell/d2: number of embryos,[2]; [9],0
same,Blast/d3: number of embryos,[2]; [9],5
same,Blast/d3: portion of the initial number of embryos,[2]; [9],50%
same,Hatch/d4: number of embryos,[2]; [9],3
same,Hatch/d4: portion of the initial number of embryos,[2]; [9],30%
same,comp/d2: number of embryos,[2]; [9],6
same,irreg/d1: number of embryos,[2]; [9],3
same,2Cell/d1: number of embryos,[2]; [10],14
same,8Cell/d2: number of embryos,[2]; [10],4
same,Blast/d3: number of embryos,[2]; [10],12
same,Blast/d3: portion of the initial number of embryos,[2]; [10],66.7%
same,Hatch/d4: number of embryos,[2]; [10],7
same,Hatch/d4: portion of the initial number of embryos,[2]; [10],41.2%
same,comp/d2: number of embryos,[2]; [10],10
same,irreg/d1: number of embryos,[2]; [10],4
same,effect on embryonic development (percentages of blastocysts and hatched blastocysts),"[2]; Example 16, 1.7 mM in cleavage media",negative effect
same,8 cell/d2: number of embryos,[2]; [11],6
same,Blast/d3: number of embryos,[2]; [11],10
same,Blast/d3: portion of the initial number of embryos,[2]; [11],90.90%
same,Hatch/d4: number of embryos,[2]; [11],4
same,Hatch/d4: portion of the initial number of embryos,[2]; [11],36.36%
same,comp/d2: number of embryos,[2]; [11],5
